Assay results from patent publication US6737383B1, “Herbicidal oxadiazolidines” (priority 1999, dated 2004).

Tests used:
wild oat = experiment: Test B pre/postemergence wild oat; type: in vivo, Avena fatua
Procedure, shortened: (§1)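 Test chemicals in a non-phytotoxic solvent mixture with surfactant were sprayed preemergence onto planted seeds and postemergence onto plants 2 to 18 cm tall (1- to 4-leaf stage). After twelve to sixteen days in a greenhouse, injury was visually rated against untreated controls from 0 (no effect) to 10 (complete control).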

bedstraw = experiment: Test B pre/postemergence bedstraw; type: in vivo, Galium aparine
Procedure, shortened: as §1

wheat = experiment: Test B pre/postemergence wheat; type: in vivo, Triticum aestivum
Procedure, shortened: as §1

pigweed = experiment: Test B pre/postemergence pigweed; type: in vivo, Amaranthus retroflexus
Procedure, shortened: as §1

blackgrass = experiment: Test B pre/postemergence blackgrass; type: in vivo, Alopecurus myosuroides
Procedure, shortened: as §1

velvetleaf = experiment: Test B pre/postemergence velvetleaf; type: in vivo, Abutilon theophrasti
Procedure, shortened: as §1

soybean = experiment: Test B pre/postemergence soybean; type: in vivo, Glycine max
Procedure, shortened: as §1

corn = experiment: Test B pre/postemergence corn; type: in vivo, Zea mays
Procedure, shortened: as §1

sugar beet = experiment: Test B pre/postemergence sugar beet; type: in vivo, Beta vulgaris
Procedure, shortened: as §1

surinam grass = experiment: Test B pre/postemergence surinam grass; type: in vivo, Brachiaria decumbens
Procedure, shortened: as §1

cocklebur = experiment: Test B pre/postemergence cocklebur; type: in vivo, Xanthium strumarium
Procedure, shortened: as §1

purple nutsedge = experiment: Test B pre/postemergence purple nutsedge; type: in vivo, Cyperus rotundus
Procedure, shortened: as §1

giant foxtail = experiment: Test B pre/postemergence giant foxtail; type: in vivo, Setaria faberii
Procedure, shortened: as §1

crabgrass = experiment: Test B pre/postemergence crabgrass; type: in vivo, Digitaria sanguinalis
Procedure, shortened: as §1

morningglory = experiment: Test B pre/postemergence morningglory; type: in vivo, Ipomoea hederacea
Procedure, shortened: as §1

rape = experiment: Test B pre/postemergence rape; type: in vivo, Brassica napus
Procedure, shortened: as §1

[1] = Postemergence, Rate 62 g/ha, scale 0 to 10, 0 is no effect, 10 is complete control
[2] = Postemergence, Rate 125 g/ha, scale of 0 to 10 where 0 is no effect and 10 is complete control
[3] = Preemergence, Rate 125 g/ha, scale of 0 to 10 where 0 is no effect and 10 is complete control
[4] = Preemergence, Rate 250 g/ha, scale 0 (no effect) to 10 (complete control)
[5] = Rate 62 g/ha, Preemergence, scale 0 to 10
[6] = Rate 250 g/ha, Postemergence, scale 0 to 10, 0 is no effect, 10 is complete control
[7] = Rate 500 g/ha, Postemergence, scale 0 to 10, 0 is no effect, 10 is complete control
[8] = Rate 500 g/ha, Preemergence, scale 0 to 10 (0 no effect, 10 complete control)

Compound: CC(C)N(C(=O)n1oc(=O)n(CC(F)F)c1=O)c1ccc(Cl)cc1 [Compound 745]
- Plant response rating, Wild oats (wild oat; [1]): 0
- Wild oats plant response rating (wild oat; [2]): 0
- Plant response rating, Wild oats (wild oat; [3]): 6
- Wild oats plant response rating (wild oat; [4]): 8
- Wild oats plant response rating (wild oat; [5]): 2
- Wild oats plant response rating (wild oat; [6]): 4
- Wild oats plant response rating (wild oat; [7]): 4
- Wild oats plant response rating (wild oat; [8]): 8
- Bedstraw plant response rating (bedstraw; [4]): 5
- Bedstraw plant response rating (bedstraw; [5]): 0
- Bedstraw plant response rating (bedstraw; [6]): 7
- Bedstraw plant response rating (bedstraw; [7]): 9
- Bedstraw plant response rating (bedstraw; [8]): 5
- Plant response rating, Wheat (wheat; [1]): 0
- Wheat plant response rating (wheat; [2]): 0
- Plant response rating, Wheat (wheat; [3]): 0
- Wheat plant response rating (wheat; [4]): 0
- Wheat plant response rating (wheat; [5]): 0
- Wheat plant response rating (wheat; [6]): 0
- Wheat plant response rating (wheat; [7]): 3
- Wheat plant response rating (wheat; [8]): 0
- Plant response rating, Redroot pigweed (pigweed; [1]): 2
- Redroot pigweed plant response rating (pigweed; [2]): 2
- Plant response rating, Redroot pigweed (pigweed; [3]): 9
- Redroot pigweed plant response rating (pigweed; [4]): 10
- Redroot pigweed plant response rating (pigweed; [5]): 7
- Redroot pigweed plant response rating (pigweed; [6]): 5
- Redroot pigweed plant response rating (pigweed; [7]): 6
- Redroot pigweed plant response rating (pigweed; [8]): 10
- Plant response rating, Blackgrass (blackgrass; [1]): 3
- Blackgrass plant response rating (blackgrass; [2]): 3
- Plant response rating, Blackgrass (blackgrass; [3]): 6
- Blackgrass plant response rating (blackgrass; [4]): 9
- Blackgrass plant response rating (blackgrass; [5]): 3
- Blackgrass plant response rating (blackgrass; [6]): 8
- Blackgrass plant response rating (blackgrass; [7]): 9
- Blackgrass plant response rating (blackgrass; [8]): 9
- Plant response rating, Velvetleaf (velvetleaf; [1]): 0
- Velvetleaf plant response rating (velvetleaf; [2]): 0
- Plant response rating, Velvetleaf (velvetleaf; [3]): 0
- Velvetleaf plant response rating (velvetleaf; [4]): 4
- Velvetleaf plant response rating (velvetleaf; [5]): 0
- Velvetleaf plant response rating (velvetleaf; [6]): 3
- Velvetleaf plant response rating (velvetleaf; [7]): 7
- Velvetleaf plant response rating (velvetleaf; [8]): 6
- Plant response rating, Soybean (soybean; [1]): 3
- Soybean plant response rating (soybean; [2]): 3
- Plant response rating, Soybean (soybean; [3]): 0
- Soybean plant response rating (soybean; [4]): 0
- Soybean plant response rating (soybean; [5]): 0
- Soybean plant response rating (soybean; [6]): 5
- Soybean plant response rating (soybean; [7]): 5
- Soybean plant response rating (soybean; [8]): 0
- Plant response rating, Corn (corn; [1]): 0
- Corn plant response rating (corn; [2]): 0
- Plant response rating, Corn (corn; [3]): 0
- Corn plant response rating (corn; [4]): 2
- Corn plant response rating (corn; [5]): 0
- Corn plant response rating (corn; [6]): 0
- Corn plant response rating (corn; [7]): 0
- Corn plant response rating (corn; [8]): 2
- Plant response rating, Sugarbeets (sugar beet; [1]): 2
- Sugarbeets plant response rating (sugar beet; [2]): 2
- Plant response rating, Sugarbeets (sugar beet; [3]): 4
- Sugarbeets plant response rating (sugar beet; [4]): 4
- Sugarbeets plant response rating (sugar beet; [5]): 0
- Sugarbeets plant response rating (sugar beet; [6]): 4
- Sugarbeets plant response rating (sugar beet; [7]): 4
- Sugarbeets plant response rating (sugar beet; [8]): 4
- Plant response rating, B. signalgrass (surinam grass; [1]): 0
- B. signalgrass plant response rating (surinam grass; [2]): 0
- B. signalgrass plant response rating (surinam grass; Preemergence, Rate 62 g/ha, scale of 0 to 10 where 0 is no effect and 10 is complete control): 8
- Plant response rating, B. signalgrass (surinam grass; [3]): 9
- B. signalgrass plant response rating (surinam grass; [4]): 10
- B. signalgrass plant response rating (surinam grass; [6]): 6
- B. signalgrass plant response rating (surinam grass; [7]): 6
- B. signalgrass plant response rating (surinam grass; [8]): 10
- Plant response rating, Cocklebur (cocklebur; [1]): 0
- Cocklebur plant response rating (cocklebur; [2]): 0
- Plant response rating, Cocklebur (cocklebur; [3]): 0
- Cocklebur plant response rating (cocklebur; [4]): 0
- Cocklebur plant response rating (cocklebur; [5]): 0
- Cocklebur plant response rating (cocklebur; [6]): 0
- Cocklebur plant response rating (cocklebur; [7]): 4
- Cocklebur plant response rating (cocklebur; [8]): 0
- Plant response rating, Nutsedge (purple nutsedge; [1]): 0
- Nutsedge plant response rating (purple nutsedge; [2]): 0
- Nutsedge plant response rating (purple nutsedge; [4]): 0
- Nutsedge plant response rating (purple nutsedge; [5]): 0
- Nutsedge plant response rating (purple nutsedge; [6]): 0
- Nutsedge plant response rating (purple nutsedge; [7]): 0
- Nutsedge plant response rating (purple nutsedge; [8]): 5
- Plant response rating, Giant foxtail (giant foxtail; [1]): 2
- Giant foxtail plant response rating (giant foxtail; [2]): 2
- Plant response rating, Giant foxtail (giant foxtail; [3]): 10
- Giant foxtail plant response rating (giant foxtail; [4]): 10
- Giant foxtail plant response rating (giant foxtail; [5]): 10
- Giant foxtail plant response rating (giant foxtail; [6]): 9
- Giant foxtail plant response rating (giant foxtail; [7]): 9
- Giant foxtail plant response rating (giant foxtail; [8]): 10
- Plant response rating, Crabgrass (crabgrass; [1]): 4
- Crabgrass plant response rating (crabgrass; [2]): 4
- Plant response rating, Crabgrass (crabgrass; [3]): 10
- Crabgrass plant response rating (crabgrass; [4]): 10
- Crabgrass plant response rating (crabgrass; [5]): 7
- Crabgrass plant response rating (crabgrass; [6]): 9
- Crabgrass plant response rating (crabgrass; [7]): 9
- Crabgrass plant response rating (crabgrass; [8]): 10
- Plant response rating, Morningglory (morningglory; [1]): 3
- Morningglory plant response rating (morningglory; [2]): 3
- Plant response rating, Morningglory (morningglory; [3]): 0
- Morningglory plant response rating (morningglory; [4]): 0
- Morningglory plant response rating (morningglory; [5]): 0
- Morningglory plant response rating (morningglory; [6]): 3
- Morningglory plant response rating (morningglory; [7]): 8
- Morningglory plant response rating (morningglory; [8]): 3
- Plant response rating, Rape (rape; [1]): 0
- Rape plant response rating (rape; [2]): 0
- Plant response rating, Rape (rape; [3]): 5
- Rape plant response rating (rape; [4]): 7
- Rape plant response rating (rape; [5]): 0
- Rape plant response rating (rape; [6]): 5
- Rape plant response rating (rape; [7]): 7
- Rape plant response rating (rape; [8]): 7
